In ChEMBL document CHEMBL4837249, “Discovery of Potent Antiallergic Agents Based on an o-Aminopyridinyl Alkynyl Scaffold” (J Med Chem, 2021):

Tests used:
[1] = target: Tyrosine-protein kinase Lck (Homo sapiens, UniProt P06239); assay: Inhibition of human full length recombinant LCK by radiometric scintillation counting analysis
[2] = target: Tyrosine-protein kinase Fyn (Homo sapiens, UniProt P06241); assay: Inhibition of human full length recombinant Fyn by radiometric scintillation counting analysis
[3] = target: T1, Inhibitor of nuclear factor kappa-B kinase subunit alpha (Homo sapiens) (UniProt O15111); assay: Inhibition of human full length recombinant IKKalpha at 5 nM by radiometric scintillation counting analysis relative to control
T1 sequence (whole entry): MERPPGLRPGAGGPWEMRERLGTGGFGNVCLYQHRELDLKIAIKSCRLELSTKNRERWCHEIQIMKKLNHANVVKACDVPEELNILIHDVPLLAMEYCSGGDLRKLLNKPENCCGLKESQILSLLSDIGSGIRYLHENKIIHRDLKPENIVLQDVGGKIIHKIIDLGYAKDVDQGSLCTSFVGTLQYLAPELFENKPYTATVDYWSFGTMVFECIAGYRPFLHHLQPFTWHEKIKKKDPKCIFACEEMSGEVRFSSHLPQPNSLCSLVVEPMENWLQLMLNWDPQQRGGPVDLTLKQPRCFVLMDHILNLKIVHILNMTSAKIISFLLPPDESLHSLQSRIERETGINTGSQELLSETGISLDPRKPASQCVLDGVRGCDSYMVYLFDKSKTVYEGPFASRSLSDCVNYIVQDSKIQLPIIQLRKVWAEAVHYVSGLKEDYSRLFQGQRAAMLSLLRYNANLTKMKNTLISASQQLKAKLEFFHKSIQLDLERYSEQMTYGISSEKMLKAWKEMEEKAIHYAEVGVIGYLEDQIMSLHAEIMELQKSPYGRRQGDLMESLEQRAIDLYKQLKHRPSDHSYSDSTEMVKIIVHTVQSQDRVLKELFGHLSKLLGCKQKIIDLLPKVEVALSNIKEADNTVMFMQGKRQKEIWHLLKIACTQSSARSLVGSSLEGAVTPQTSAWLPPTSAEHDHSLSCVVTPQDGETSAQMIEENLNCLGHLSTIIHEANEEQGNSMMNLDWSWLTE

[4] = target: T2, Tyrosine-protein kinase Tec (Homo sapiens) (UniProt P42680); assay: Inhibition of human recombinant Tec (174 to end) at 5 nM by radiometric scintillation counting analysis relative to control
T2 sequence (whole entry): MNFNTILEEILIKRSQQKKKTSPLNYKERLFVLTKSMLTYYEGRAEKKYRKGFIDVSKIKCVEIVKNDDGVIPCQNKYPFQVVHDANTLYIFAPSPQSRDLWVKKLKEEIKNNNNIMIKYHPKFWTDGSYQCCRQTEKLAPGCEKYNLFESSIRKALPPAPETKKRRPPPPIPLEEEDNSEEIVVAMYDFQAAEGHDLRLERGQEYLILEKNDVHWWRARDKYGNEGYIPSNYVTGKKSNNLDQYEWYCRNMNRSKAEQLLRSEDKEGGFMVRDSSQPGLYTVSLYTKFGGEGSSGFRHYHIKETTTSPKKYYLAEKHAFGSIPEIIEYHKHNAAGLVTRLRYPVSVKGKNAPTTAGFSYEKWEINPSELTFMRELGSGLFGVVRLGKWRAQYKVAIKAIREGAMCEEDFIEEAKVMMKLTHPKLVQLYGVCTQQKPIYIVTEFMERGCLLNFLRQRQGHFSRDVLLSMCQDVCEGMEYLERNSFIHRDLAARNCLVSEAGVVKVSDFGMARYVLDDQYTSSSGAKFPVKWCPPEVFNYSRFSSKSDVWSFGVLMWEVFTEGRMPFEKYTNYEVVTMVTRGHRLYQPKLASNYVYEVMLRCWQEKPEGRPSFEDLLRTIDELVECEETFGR

[5] = target: Tyrosine-protein kinase Yes (Homo sapiens, UniProt P07947); assay: Inhibition of human full length recombinant Yes at 5 nM by radiometric scintillation counting analysis relative to control
[6] = target: T3, Tyrosine-protein kinase ITK/TSK (Homo sapiens) (UniProt Q08881); assay: Inhibition of human recombinant ITK (352 to 617) at 50 nM by radiometric scintillation counting analysis relative to control
T3 sequence (whole entry): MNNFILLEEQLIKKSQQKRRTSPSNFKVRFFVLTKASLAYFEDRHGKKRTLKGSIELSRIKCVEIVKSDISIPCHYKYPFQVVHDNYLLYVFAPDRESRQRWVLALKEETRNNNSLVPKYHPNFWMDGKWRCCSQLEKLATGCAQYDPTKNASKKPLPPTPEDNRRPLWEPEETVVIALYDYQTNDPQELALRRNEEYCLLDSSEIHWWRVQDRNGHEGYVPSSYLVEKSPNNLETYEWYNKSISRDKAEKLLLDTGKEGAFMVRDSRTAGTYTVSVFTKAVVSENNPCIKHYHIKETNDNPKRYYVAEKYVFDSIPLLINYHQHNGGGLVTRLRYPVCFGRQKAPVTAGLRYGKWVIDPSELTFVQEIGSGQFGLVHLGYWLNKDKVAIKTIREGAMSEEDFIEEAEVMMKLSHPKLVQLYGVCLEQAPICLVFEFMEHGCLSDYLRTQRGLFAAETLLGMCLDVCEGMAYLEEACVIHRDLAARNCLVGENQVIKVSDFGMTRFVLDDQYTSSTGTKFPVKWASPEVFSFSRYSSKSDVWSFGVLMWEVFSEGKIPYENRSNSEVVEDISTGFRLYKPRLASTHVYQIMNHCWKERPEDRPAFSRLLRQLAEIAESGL

[7] = target: Tyrosine-protein kinase SYK (Homo sapiens) (UniProt P43405); assay: Inhibition of human full length recombinant Syk at 50 nM by radiometric scintillation counting analysis relative to control
[8] = target: T2, Tyrosine-protein kinase Tec (Homo sapiens); assay: Inhibition of human recombinant Tec (174 to end) at 50 nM by radiometric scintillation counting analysis relative to control
[9] = target: T2, Tyrosine-protein kinase Tec (Homo sapiens); assay: Inhibition of human recombinant Tec (174 to end) at 500 nM by radiometric scintillation counting analysis relative to control
[10] = target: Tyrosine-protein kinase Blk (Homo sapiens, UniProt P51451); assay: Inhibition of human full length recombinant BLK by radiometric scintillation counting analysis
[11] = target: Tyrosine-protein kinase Lyn (Homo sapiens, UniProt P07948); assay: Inhibition of human full length recombinant LYN by radiometric scintillation counting analysis
[12] = target: Proto-oncogene tyrosine-protein kinase Src (Homo sapiens, UniProt P12931); assay: Inhibition of human recombinant Src (1-530) by radiometric scintillation counting analysis
[13] = target: Cytoplasmic tyrosine-protein kinase BMX (Homo sapiens, UniProt P51813); assay: Inhibition of human full length recombinant Bmx by radiometric scintillation counting analysis
[14] = target: Tyrosine-protein kinase ABL1 (Homo sapiens, UniProt P00519); assay: Inhibition of human recombinant ABL1 using ATP/Ulight-TK peptide incubated for 15 mins
[15] = target: Tyrosine-protein kinase Srms (Homo sapiens, UniProt Q9H3Y6); assay: Inhibition of human SRMS by radiometric scintillation counting analysis
[16] = Therapeutic index, ratio of CC50 for rat RBL2H3 cells to IC50 for Antiallergic activity against anti-DNP-IgE sensitized rat RBL-2H3 cells; assay type: toxicity; conditions: read-out: TI

Chain of Tyrosine-protein kinase Yes (P07947 2-543 limits assumed): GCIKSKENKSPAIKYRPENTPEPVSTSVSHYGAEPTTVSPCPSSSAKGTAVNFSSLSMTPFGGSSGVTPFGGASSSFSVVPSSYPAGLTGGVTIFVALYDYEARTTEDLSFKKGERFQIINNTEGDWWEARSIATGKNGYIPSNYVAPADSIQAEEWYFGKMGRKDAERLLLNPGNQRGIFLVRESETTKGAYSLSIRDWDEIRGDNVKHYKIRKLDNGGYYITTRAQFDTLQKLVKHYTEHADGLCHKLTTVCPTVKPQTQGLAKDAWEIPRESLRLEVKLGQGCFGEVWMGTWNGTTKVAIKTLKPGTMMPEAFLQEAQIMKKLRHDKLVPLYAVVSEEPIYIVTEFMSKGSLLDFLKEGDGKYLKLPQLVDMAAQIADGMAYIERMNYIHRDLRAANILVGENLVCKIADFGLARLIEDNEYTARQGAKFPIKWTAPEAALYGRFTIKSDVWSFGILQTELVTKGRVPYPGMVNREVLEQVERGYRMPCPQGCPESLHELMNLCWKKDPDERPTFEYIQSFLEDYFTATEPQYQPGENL
Chain of Tyrosine-protein kinase Lyn (P07948 whole entry): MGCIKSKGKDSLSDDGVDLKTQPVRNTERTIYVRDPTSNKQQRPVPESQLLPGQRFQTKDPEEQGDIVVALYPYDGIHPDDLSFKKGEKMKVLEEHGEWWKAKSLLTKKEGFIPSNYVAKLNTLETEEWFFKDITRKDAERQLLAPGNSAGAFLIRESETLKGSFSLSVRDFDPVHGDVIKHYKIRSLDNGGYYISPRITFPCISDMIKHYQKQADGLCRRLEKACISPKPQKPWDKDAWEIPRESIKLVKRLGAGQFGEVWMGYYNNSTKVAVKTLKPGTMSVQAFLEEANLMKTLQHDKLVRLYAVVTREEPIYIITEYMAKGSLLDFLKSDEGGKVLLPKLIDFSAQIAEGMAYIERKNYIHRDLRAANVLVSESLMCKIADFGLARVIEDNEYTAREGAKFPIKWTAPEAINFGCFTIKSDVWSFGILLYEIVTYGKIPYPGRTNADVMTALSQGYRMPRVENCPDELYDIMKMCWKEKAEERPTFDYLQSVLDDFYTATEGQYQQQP
Chain of Tyrosine-protein kinase Srms (Q9H3Y6 whole entry): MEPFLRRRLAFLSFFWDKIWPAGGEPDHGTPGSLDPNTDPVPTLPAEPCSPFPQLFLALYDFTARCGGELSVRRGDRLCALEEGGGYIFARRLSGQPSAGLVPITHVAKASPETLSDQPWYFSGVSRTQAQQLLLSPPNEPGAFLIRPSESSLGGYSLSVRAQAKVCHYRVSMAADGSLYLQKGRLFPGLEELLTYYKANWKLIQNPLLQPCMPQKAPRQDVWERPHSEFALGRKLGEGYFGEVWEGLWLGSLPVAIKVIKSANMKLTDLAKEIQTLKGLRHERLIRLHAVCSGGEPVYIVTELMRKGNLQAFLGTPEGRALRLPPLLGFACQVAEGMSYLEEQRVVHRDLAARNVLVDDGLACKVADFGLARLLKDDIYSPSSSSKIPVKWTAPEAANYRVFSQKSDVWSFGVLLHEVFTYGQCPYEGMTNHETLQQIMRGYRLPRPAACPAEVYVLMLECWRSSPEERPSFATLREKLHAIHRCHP
Chain of Proto-oncogene tyrosine-protein kinase Src (P12931 2-536 limits assumed): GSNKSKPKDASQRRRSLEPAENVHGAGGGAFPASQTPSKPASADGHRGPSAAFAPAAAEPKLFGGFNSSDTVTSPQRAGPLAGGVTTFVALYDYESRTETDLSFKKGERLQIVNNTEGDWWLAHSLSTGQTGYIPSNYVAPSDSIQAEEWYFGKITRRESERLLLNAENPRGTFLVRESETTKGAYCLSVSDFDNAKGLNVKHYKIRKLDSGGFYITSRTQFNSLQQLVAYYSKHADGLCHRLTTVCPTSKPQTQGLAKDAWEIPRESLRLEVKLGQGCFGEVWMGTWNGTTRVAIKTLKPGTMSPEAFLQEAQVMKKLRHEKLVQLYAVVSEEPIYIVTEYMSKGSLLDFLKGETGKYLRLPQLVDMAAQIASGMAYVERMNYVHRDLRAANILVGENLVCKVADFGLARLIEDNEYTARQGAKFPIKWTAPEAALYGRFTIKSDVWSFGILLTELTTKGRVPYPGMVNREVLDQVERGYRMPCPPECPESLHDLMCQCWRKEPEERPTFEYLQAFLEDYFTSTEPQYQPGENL
Chain of Tyrosine-protein kinase Lck (P06239 whole entry): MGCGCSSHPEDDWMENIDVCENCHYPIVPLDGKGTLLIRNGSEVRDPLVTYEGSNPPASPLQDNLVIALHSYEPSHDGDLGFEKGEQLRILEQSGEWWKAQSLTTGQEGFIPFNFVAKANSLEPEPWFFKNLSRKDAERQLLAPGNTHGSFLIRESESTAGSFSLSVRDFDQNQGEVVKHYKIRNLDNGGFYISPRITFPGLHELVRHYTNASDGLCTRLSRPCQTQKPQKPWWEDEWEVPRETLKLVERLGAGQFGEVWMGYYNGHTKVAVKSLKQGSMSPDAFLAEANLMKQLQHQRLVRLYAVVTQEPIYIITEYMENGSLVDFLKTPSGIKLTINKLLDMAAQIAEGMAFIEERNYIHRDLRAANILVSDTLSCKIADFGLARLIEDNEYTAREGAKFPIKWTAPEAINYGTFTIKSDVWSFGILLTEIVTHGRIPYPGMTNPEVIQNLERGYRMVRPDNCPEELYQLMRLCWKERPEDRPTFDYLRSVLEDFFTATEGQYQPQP
Chain of Cytoplasmic tyrosine-protein kinase BMX (P51813 whole entry): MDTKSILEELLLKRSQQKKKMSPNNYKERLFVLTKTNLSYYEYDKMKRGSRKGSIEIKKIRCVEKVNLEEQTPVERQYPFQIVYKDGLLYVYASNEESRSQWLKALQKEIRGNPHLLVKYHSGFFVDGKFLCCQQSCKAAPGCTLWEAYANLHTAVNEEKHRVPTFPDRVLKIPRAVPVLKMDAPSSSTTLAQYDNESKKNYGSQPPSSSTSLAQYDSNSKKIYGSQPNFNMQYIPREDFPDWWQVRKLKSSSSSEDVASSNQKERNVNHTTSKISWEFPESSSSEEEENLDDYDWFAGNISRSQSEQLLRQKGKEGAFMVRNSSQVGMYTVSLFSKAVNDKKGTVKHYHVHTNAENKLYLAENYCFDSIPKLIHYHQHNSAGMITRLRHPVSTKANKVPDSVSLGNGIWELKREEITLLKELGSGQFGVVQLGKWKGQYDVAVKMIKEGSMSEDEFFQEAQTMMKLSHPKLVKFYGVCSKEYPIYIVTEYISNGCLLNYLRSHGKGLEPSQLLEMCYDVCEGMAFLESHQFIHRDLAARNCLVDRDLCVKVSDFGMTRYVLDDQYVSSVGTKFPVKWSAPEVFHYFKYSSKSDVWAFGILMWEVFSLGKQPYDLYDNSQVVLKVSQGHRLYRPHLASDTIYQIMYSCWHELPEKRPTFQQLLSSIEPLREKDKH
Chain of Tyrosine-protein kinase Fyn (P06241 whole entry): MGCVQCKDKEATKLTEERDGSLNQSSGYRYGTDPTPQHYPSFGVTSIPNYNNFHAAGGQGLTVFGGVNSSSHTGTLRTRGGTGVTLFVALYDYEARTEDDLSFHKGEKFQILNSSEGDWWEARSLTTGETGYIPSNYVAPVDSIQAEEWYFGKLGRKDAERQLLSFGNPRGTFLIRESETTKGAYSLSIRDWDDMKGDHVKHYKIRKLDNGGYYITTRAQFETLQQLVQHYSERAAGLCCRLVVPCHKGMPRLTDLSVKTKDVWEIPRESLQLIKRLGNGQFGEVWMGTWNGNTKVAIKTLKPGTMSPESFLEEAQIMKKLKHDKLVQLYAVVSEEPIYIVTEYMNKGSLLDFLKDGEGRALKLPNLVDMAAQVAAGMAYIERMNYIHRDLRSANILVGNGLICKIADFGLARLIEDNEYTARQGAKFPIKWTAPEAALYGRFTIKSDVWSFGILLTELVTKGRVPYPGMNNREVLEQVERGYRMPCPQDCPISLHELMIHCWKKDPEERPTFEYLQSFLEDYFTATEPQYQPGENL
Chain of Tyrosine-protein kinase Blk (P51451 whole entry): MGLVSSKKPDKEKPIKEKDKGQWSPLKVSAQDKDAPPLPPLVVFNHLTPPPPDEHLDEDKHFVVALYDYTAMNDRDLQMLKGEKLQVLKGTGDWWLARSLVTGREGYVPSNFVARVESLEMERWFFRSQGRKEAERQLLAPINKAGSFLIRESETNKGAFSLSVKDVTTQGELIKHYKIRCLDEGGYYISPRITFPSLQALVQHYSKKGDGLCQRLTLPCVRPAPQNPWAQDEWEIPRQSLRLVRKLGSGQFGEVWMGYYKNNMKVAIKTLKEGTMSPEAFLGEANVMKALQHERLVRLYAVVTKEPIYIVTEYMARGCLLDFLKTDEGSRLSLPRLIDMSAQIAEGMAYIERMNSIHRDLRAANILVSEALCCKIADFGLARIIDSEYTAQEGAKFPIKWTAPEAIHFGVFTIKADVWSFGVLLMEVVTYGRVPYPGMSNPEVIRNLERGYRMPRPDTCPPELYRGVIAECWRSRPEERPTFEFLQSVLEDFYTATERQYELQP

Structure (SMILES)	IC50 [1] [nM]	IC50 [2] [nM]	inhibition [3] [%]	inhibition [4] [%]	inhibition [5] [%]	inhibition [6] [%]	inhibition [7] [%]	inhibition [8] [%]	inhibition [9] [%]	IC50 [10] [nM]	IC50 [11] [nM]	IC50 [12] [nM]	IC50 [13] [nM]	IC50 [14] [nM]	IC50 [15] [nM]	selectivity ratio [16]
Cc1ccc(C(=O)Nc2ccc(Cl)cc2Cl)cc1C#Cc1cc(-c2cnn(C)c2)cnc1N	29	307	6	-5	-7	3	-3	-10	-7	> 1000	7	163	> 1000	7	> 1000	
Cc1ccc(C(=O)Nc2cc(C(F)(F)F)cc(C(F)(F)F)c2)cc1C#Cc1cc(-c2cnn(C)c2)cnc1N	101	56	9	1		-1	-1	10	-3	56	9	12	126	22	114	148
Cc1ccc(C(=O)Nc2ccc(OC(F)(F)F)cc2)cc1C#Cc1cc(-c2cnn(C)c2)cnc1N					0											16.3
